One experiment concerns the target T1, active p38 alpha enzyme (Upstate Biotechnology) (Homo sapiens, UniProt Q16539).
T1 construct: purchased Upstate Biotechnology
The experiment in a line: p38α biochemical assay (ATP turnover, luminescent detection, Cambrex PKlight). The following applies: p38α biochemical assay, Table 1 Biological Activity. On the procedure: The p38α biochemical assay employed is based on measurement of total ATP turnover following enzyme incubation with substrate in the presence of ATP with the use of a luminescent detection reagent (Cambrex PKlight). The assays were performed in 1536-well white opaque plates.
The final volume was 7.5005 μL as prepared prepared from the addition of 5 ul of kinase reaction (p38 alpah+MapkapK2+ATP) with 0.0005 μL compound dissolved in DMSO, and 2.5 ul of the detection reagent. Assay buffer contains the following reagents to give final concentration in the assay: 200 mM Tris, 100 mM MgCl2, 1.5 mM EGTA, 4 mM CaCl2, 20 mM MOPS, 1 mM EDTA, 1% glycerol, 0.1% B-Mecaptoethanol, and 1 mg/ml BSA. Test compounds are pinned using proprietary pintool technology (Kalypsys, Inc) and delivered as […] amounts into the 5 ul mixture of active p38 alpha enzyme (Upstate Biotechnology) and MapkapK2 (Upstate Biotechnology) whole protein as a substrate for phosphorylation in the presence of 1.4 uM final concentration ATP. Reactions are incubated at 30C for 2 hours and detection reagent is added in 2.5 ul/well amounts. Assay is read using a Perkin Elmer Viewlux.
T1 sequence (Q16539 whole entry): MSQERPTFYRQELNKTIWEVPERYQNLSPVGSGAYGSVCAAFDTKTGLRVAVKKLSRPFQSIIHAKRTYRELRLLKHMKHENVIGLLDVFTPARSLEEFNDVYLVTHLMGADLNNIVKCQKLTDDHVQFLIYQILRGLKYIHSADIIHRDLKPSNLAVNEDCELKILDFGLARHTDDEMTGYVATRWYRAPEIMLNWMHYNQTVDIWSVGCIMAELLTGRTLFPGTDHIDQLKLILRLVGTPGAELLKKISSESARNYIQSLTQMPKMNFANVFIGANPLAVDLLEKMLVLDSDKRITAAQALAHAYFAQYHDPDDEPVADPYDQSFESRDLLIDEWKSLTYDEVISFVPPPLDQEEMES
For `CC(C)NC(=O)c1csc(-c2oc(CNC(=O)c3ccc(Cl)cc3[N+](=O)[O-])nc2-c2ccc(F)cc2)n1` [Example 273], the IC50 is at most 1000 nM.
On the same count and under the same terms, with `COc1cc(OC)c(C(=O)NCc2nc(-c3ccc(F)cc3)c(-c3nc(C(=O)NC(C)C)cs3)o2)c(OC)c1` [Example 283] the figure was at most 1000 nM; with `CC(C)NC(=O)c1csc(-c2oc(CN3CCN(C(=O)C(C)NC(=O)OC(C)(C)C)CC3)nc2-c2ccc(F)cc2)n1` (stereo not drawn) [Example 485], over 1000 nM.
Compound `CC(C)NC(=O)c1csc(-c2oc(CNC(=O)c3cc(F)ccc3[N+](=O)[O-])nc2-c2ccc(F)cc2)n1` [Example 236] showed a half-maximal inhibitory concentration (IC50) of at most 1000 nM.
On the same count and under the same terms, the figure for `CC(C)NC(=O)c1csc(-c2oc(CNC(=O)c3ncc[nH]3)nc2-c2ccc(F)cc2)n1` [Example 106] is at most 1000 nM; for `CC(C)NC(=O)c1csc(-c2oc(CNC(=O)c3cccc4ccccc34)nc2-c2ccc(F)cc2)n1` [Example 194] it is at most 1000 nM.
For `C#CCNC(=O)c1csc(-c2[nH]c(CN3CCNCC3)nc2-c2ccc(F)cc2)n1` [Example 82, 2-|5-(4-Fluoro-phenyl)-2-piperazin-1-ylmethyl-3H-imidazol-4-yl|-thiazole-4-carboxylic acid prop-2-ynylamide], the half-inhibitory concentration (IC50) is at most 1000 nM.
Still for that read-out and setting: with `CC(C)NC(=O)c1csc(-c2oc(CNC(=O)Cc3ccc(O)c(F)c3)nc2-c2ccc(F)cc2)n1` [Example 191] the figure was at most 1000 nM.
For `CC(C)NC(=O)c1csc(-c2oc(CNC(=O)c3cc(Cl)ccc3Cl)nc2-c2ccc(F)cc2)n1` [Example 253], the concentration for half-maximal inhibition (IC50) was at most 1000 nM.
As for `CC(C)NC(=O)c1csc(-c2oc(CNC(=O)c3cccc([N+](=O)[O-])c3)nc2-c2ccc(F)cc2)n1` [Example 185], the IC50 is over 1000 nM.
On the same count and under the same terms, with `CC(C)NC(=O)c1csc(-c2oc(CNC(=O)Cc3cccc(O)c3)nc2-c2ccc(F)cc2)n1` [Example 144] the figure was at most 1000 nM.
Same read-out and setting: with `CC(C)NC(=O)c1csc(-c2c(-c3ccc(F)cc3)noc2CNC(=O)/C=C/c2cccc(O)c2)n1` [Example 643] the figure was over 1000 nM; with `CC(=O)NCC(=O)NCc1nc(-c2ccc(F)cc2)c(-c2nc(C(=O)NC(C)C)cs2)o1` [Example 110], at most 1000 nM.
Compound `COc1cc(/C=C/C(=O)NCc2nc(-c3ccc(F)cc3)c(-c3nc(C(=O)NC(C)C)cs3)o2)ccc1O` [Example 261] displayed a concentration for half-maximal inhibition (IC50) of at most 1000 nM.
Still for that read-out and setting: the figure for `Cc1ccc(C(=O)N2CCN(Cc3nc(-c4ccc(F)cc4)c(-c4nc(C(=O)NC(C)C)cs4)o3)CC2)cc1C` [Example 376] is over 1000 nM; for `CC(C)NC(=O)c1csc(-c2c(-c3ccc(F)cc3)noc2CNC(=O)c2ccc(OC(C)C)cc2)n1` [Example 694] it is over 1000 nM; for `CC(C)NC(=O)c1csc(-c2oc(CNC(=O)c3ccc(C(C)(C)C)cc3)nc2-c2ccc(F)cc2)n1` [Example 209] it is over 1000 nM.
Same read-out and setting: with `CC(C)NC(=O)c1csc(-c2oc(CN3CCN(C(=O)c4ccccc4Cl)CC3)nc2-c2ccc(F)cc2)n1` [Example 388] the figure was over 1000 nM.
For `CCOC(=O)N1CCC(NCc2onc(-c3ccc(F)cc3)c2-c2nc(C(=O)NC(C)C)cs2)CC1` [Example 31], the 50% inhibitory concentration (IC50) is over 1000 nM.
On the same count and under the same terms, the figure for `Cc1ccc(C(=O)CCC(=O)NCc2onc(-c3ccc(F)cc3)c2-c2nc(C(=O)NC(C)C)cs2)cc1` [Example 731] is over 1000 nM; for `COc1cc(OC)cc(C(=O)N2CCN(Cc3nc(-c4ccc(F)cc4)c(-c4nc(C(=O)NC(C)C)cs4)o3)CC2)c1` [Example 464] it is over 1000 nM; for `C#CCNC(=O)c1csc(-c2c(-c3ccc(F)cc3)ncn2C)n1` [Example 87, 2-|5-(4-Fluoro-phenyl)-3-methyl-3H-imidazol-4-yl|-thiazole-4-carboxylic acid prop-2-ynylamide] it is at most 1000 nM.

Still in this experiment, the particulars now being: p38α kinase; Table 1 Biological Activity.
`CC(=O)N1CCC(n2cnc(-c3ccc(Cl)cc3)c2-c2nc(C(=O)NC(C)C)cs2)CC1` [Example 2163] returned an IC50 of at most 1000 nM.
`CC1CCC(NC(=O)c2csc(-c3c(-c4ccc(F)cc4)n[nH]c3C3CCNCC3)n2)CC1` (stereo not drawn) [Example 2066]: the half-maximal inhibitory concentration (IC50) was over 1000 nM.
Same read-out and setting: the figure for `Cc1nc(-c2ccc(F)cc2)c(-c2nc(C(=O)NCCc3cccc(Cl)c3)cs2)s1` [Example 1804] is at most 1000 nM; for `CCN(CC)Cc1nc(-c2ccc(F)cc2)c(-c2nc(C(=O)NC(C)C)cs2)o1` [Example 1188] it is over 1000 nM; for `CC(C)NC(=O)c1csc(-c2c(-c3ccc(F)cc3)noc2CN(CCO)CCO)n1` [Example 1530] it is over 1000 nM.
On the same count and under the same terms, the figure for `O=C(NCC1CC1)c1csc(-c2c(-c3ccc(F)cc3)n[nH]c2C2CCNCC2)n1` [Example 2029] is at most 1000 nM; for `COc1ccc(NC(=O)c2csc(-c3sc(C)nc3-c3ccc(F)cc3)n2)cc1OC` [Example 2003] it is over 1000 nM; for `CC(C)NC(=O)c1csc(-c2oc(CN3CCN(C4CCCCC4)CC3)nc2-c2ccc(F)cc2)n1` [Example 1247] it is over 1000 nM.
Same read-out and setting: with `COc1ccccc1CNC(=O)c1csc(-c2c(-c3ccc(F)cc3)n[nH]c2C2CCNCC2)n1` [Example 2101] the figure was over 1000 nM.
On to `COc1ccccc1CCNC(=O)c1csc(-c2c(-c3ccc(F)cc3)n[nH]c2C2CCNCC2)n1` [Example 2123], for which the concentration for half-maximal inhibition (IC50) was over 1000 nM.
Compound `Cc1ccc(C(=O)N2CCC(c3[nH]nc(-c4ccc(F)cc4)c3-c3nc(C(=O)NC(C)C)cs3)CC2)cc1` [Example 837] registered an IC50 of over 1000 nM.
The same measure, in the same setting: the figure for `CC(C)CCCC(C)NCc1onc(-c2ccc(F)cc2)c1-c1nc(C(=O)NC(C)C)cs1` (stereo not drawn) [Example 1440] is over 1000 nM; for `CC(C)NC(=O)c1csc(-c2c(-c3ccc(F)cc3)noc2CN2CCN(C(=O)OC(C)(C)C)C[C@H]2CO)n1` [Example 1618] it is over 1000 nM.
Still for that read-out and setting: the figure for `Cc1ccc(NCc2nc(-c3ccc(F)cc3)c(-c3nc(C(=O)NC(C)C)cs3)o2)cc1Cl` [Example 1345] is over 1000 nM.
Regarding `Cc1nc(-c2ccc(F)cc2)c(-c2nc(C(=O)NCc3ccccc3F)cs2)s1` [Example 1760], the IC50 was at most 1000 nM.
On the same count and under the same terms, with `Cc1cccc(NC(=O)c2csc(-c3sc(C)nc3-c3ccc(F)cc3)n2)n1` [Example 1960] the figure was over 1000 nM; with `CC(C)NC(=O)c1csc(-c2oc(CNCC3(O)CCCCC3)nc2-c2ccc(F)cc2)n1` [Example 1160], over 1000 nM.
The same measure, in the same setting: with `CC(C)NC(=O)c1csc(-c2oc(CN3CCN(c4ccc(C(F)(F)F)cc4)CC3)nc2-c2ccc(F)cc2)n1` [Example 1296] the figure was over 1000 nM.
The same measure, in the same setting: with `CC(C)NC(=O)c1csc(-c2oc(CNCC(C)c3ccccc3)nc2-c2ccc(F)cc2)n1` (stereo not drawn) [Example 1117] the figure was over 1000 nM; with `CC(=O)NC(Cc1ccc(O)cc1)C(=O)N1CCC(c2[nH]nc(-c3ccc(F)cc3)c2-c2nc(C(=O)NC(C)C)cs2)CC1` (stereo not drawn) [Example 1019], over 1000 nM; with `CC(C)NC(=O)c1csc(-c2c(-c3ccc(F)cc3)n[nH]c2C2CCN(C(=O)c3c(F)cccc3F)CC2)n1` [Example 871], over 1000 nM.
`CC(C)NC(=O)c1csc(-c2c(-c3ccc(F)cc3)n[nH]c2C2CCN(C(=O)c3cc4cc(Cl)ccc4o3)CC2)n1` [Example 978] returned an IC50 of over 1000 nM.
Still for that read-out and setting: the figure for `Cc1nc(-c2ccc(F)cc2)c(-c2nc(C(=O)Nc3ccccc3)cs2)s1` [Example 1955] is over 1000 nM.
Turning to `COC(=O)N1CCC(c2[nH]nc(-c3ccc(F)cc3)c2-c2nc(C(=O)NC(C)C)cs2)CC1` [Example 2172, 4-|5-(4-Fluoro-phenyl)-4-(4-isopropyl-carbamoyl-thiazol-2-yl)-2H-pyrazol-3-yl|-piperidine-1-carboxylic acid methyl ester], the half-maximal inhibitory concentration (IC50) was at most 1000 nM.
The same measure, in the same setting: with `CC(C)NC(=O)c1csc(-c2oc(CN[C@@H](C)c3ccccc3)nc2-c2ccc(F)cc2)n1` [Example 1097] the figure was over 1000 nM; with `CC(C)NC(=O)c1csc(-c2c(-c3ccc(F)cc3)noc2CNCCCn2ccnc2)n1` [Example 1437], over 1000 nM; with `CC(C)NC(=O)c1csc(-c2oc(CNC3CCN(Cc4ccccc4)C3)nc2-c2ccc(F)cc2)n1` (stereo not drawn) [Example 1170], at most 1000 nM.
On the same count and under the same terms, the figure for `CC(C)NC(=O)c1csc(-c2oc(CNCc3cccc(C(F)(F)F)c3)nc2-c2ccc(F)cc2)n1` [Example 1167] is over 1000 nM.
The compound `Cc1ccc([N+](=O)[O-])c(C(=O)N2CCC(c3[nH]nc(-c4ccc(F)cc4)c3-c3nc(C(=O)NC(C)C)cs3)CC2)c1` [Example 936] had a concentration for half-maximal inhibition (IC50) of over 1000 nM.
Still for that read-out and setting: the figure for `CCCN(C)Cc1onc(-c2ccc(F)cc2)c1-c1nc(C(=O)NC(C)C)cs1` [Example 1514] is at most 1000 nM; for `CCCCc1ccc(C(=O)N2CCC(c3[nH]nc(-c4ccc(F)cc4)c3-c3nc(C(=O)NC(C)C)cs3)CC2)cc1` [Example 922] it is over 1000 nM.
Same read-out and setting: with `Cc1nc(-c2ccc(F)cc2)c(-c2nc(C(=O)NC(C)CCc3ccccc3)cs2)s1` (stereo not drawn) [Example 1794] the figure was over 1000 nM; with `Cc1cccc(CNC(=O)c2csc(-c3sc(C)nc3-c3ccc(F)cc3)n2)c1` [Example 1751], at most 1000 nM.
Still for that read-out and setting: the figure for `CCC(C)C(NC(=O)OC(C)(C)C)C(=O)N1CCC(c2[nH]nc(-c3ccc(F)cc3)c2-c2nc(C(=O)NC(C)C)cs2)CC1` (stereo not drawn) [Example 1042] is over 1000 nM; for `Cc1ccc([C@H](C)NC(=O)c2csc(-c3sc(C)nc3-c3ccc(F)cc3)n2)cc1` [Example 1770] it is over 1000 nM.

(Values after patent publication US20060252807A1, “Novel ortho-terphenyl inhibitors of p38 kinase and methods of treating inflammatory disorders” (Kalypsys, Inc., priority 2005, published 2006).)
